# Test results published in US9901573B2, “Compositions, methods, and kits for regulating energy metabolism” (NuSirt Sciences, Inc., priority 2012, dated 2018).
# How the values were obtained:
# C2C12 myotubes [1] = assay: Fatty acid oxidation (O2 consumption response to palmitate) in myotubes; format: cell-based; details: FIG. 4/5, 24 hours, leucine, valine, isoleucine 0.5 mM, B6 100 nM as pyridoxal phosphate, vs control
# Method: Cell Culture: C2C12 and 3T3-L1 preadipocytes (American Type Culture Collection) were plated at a density of 8000 cells/cm^2 (10 cm^2 dish) and grown in Dulbecco's modified eagle's medium (DMEM) containing 10% fetal bovine serum (FBS), and antibiotics (growth medium) at 37° C. in 5% CO2. Confluent 3T3-L1 preadipocytes were induced to differentiate with a standard differentiation medium consisting of DMEM medium supplemented with 10% FBS, 250 nM dexamethasone, 0.5 mM 3-Isobutyl-1-methylxanthine (IBMX) and 1% penicillin-streptomycin. Preadipocytes were maintained in this differentiation medium for 3 days and subsequently cultured in growth medium. Cultures were re-fed every 2-3 days to allow >90% cells to reach fully differentiation before conducting chemical treatment. For differentiation of C2C12 cells, cells were grown to 100% confluence, transferred to differentiation medium (DMEM with 2% horse serum and 1% penicillin-streptomycin), and fed with fresh differentiation medium every day until myotubes were fully formed (3 days). Fatty acid oxidation: Cellular oxygen consumption was measured using a Seahorse Bioscience XF24 analyzer (Seahorse Bioscience, Billerica, Mass.) in 24-well plates at 37° C., as described by Feige et al (1) with slight modifications. Cells were seeded at 40,000 cells per well, differentiated as described above, treated for 24 hours with the indicated treatments, washed twice with non-buffered carbonate-free pH 7.4 low glucose (2.5 mM) DMEM containing carnitine (0.5 mM), equilibrated with 550 μL of the same media in a non-CO2 incubator for 45 minutes, and then inserted into the instrument for 15 minutes of further equilibration, followed by O2 consumption measurement. Three successive baseline measurements at five-minute intervals were taken prior to injection of palmitate (200 μM final concentration). Four successive 5-minute measurements of O2 consumption were then conducted, followed by 10 minute re-equilibration and another 3-4 5-minute measurements. This measurement pattern was then repeated over a 4-6 hour period. Data for each sample were normalized to the pre-palmitate injection baseline for that sample and expressed as % change from that baseline. […] The area under of the curve of O2 consumption change from baseline for each sample was then calculated and used for subsequent analysis.
# Sirt1 = Sirt1 protein expression Western blot in myotubes; format: cell-based, mouse; details: C2C12 myotubes, FIG. 12
# Method: (§1) Cell Culture: C2C12 and 3T3-L1 preadipocytes (American Type Culture Collection) were plated at a density of 8000 cells/cm^2 (10 cm^2 dish) and grown in Dulbecco's modified eagle's medium (DMEM) containing 10% fetal bovine serum (FBS), and antibiotics (growth medium) at 37° C. in 5% CO2. Confluent 3T3-L1 preadipocytes were induced to differentiate with a standard differentiation medium consisting of DMEM medium supplemented with 10% FBS, 250 nM dexamethasone, 0.5 mM 3-Isobutyl-1-methylxanthine (IBMX) and 1% penicillin-streptomycin. Preadipocytes were maintained in this differentiation medium for 3 days and subsequently cultured in growth medium. Cultures were re-fed every 2-3 days to allow >90% cells to reach fully differentiation before conducting chemical treatment. […]
# Western blot: The Phospho-AMPKα (Thr172)- and Sirt1 (mouse specific)-antibody was obtained from Cell Signaling (Danvers, Mass.). […] Protein was measured by BCA kit (Thermo Scientific). […] Visualization and chemiluminescent detection was conducted using BioRad ChemiDoc instrumentation and software (Bio-Rad Laboratories, Hercules, Calif.) and band intensity was assessed using Image Lab 4.0 (Bio-Rad Laboratories, Hercules, Calif.), with correction for background and loading controls. P-AMPK was detected at 61-66 kDA and Sirt1 was detected at 104-115 kDA.
# 3T3-L1 adipocytes = assay: Glucose utilization (extracellular acidification) in adipocytes; format: cell-based; details: FIG. 10
# Method: as §1
# Glucose Utilization: In the absence of a fatty acid source and oxidative metabolism, glycolysis and subsequent lactate production results in extracellular acidification, which was also measured using a Seahorse Bioscience XF24 analyzer. […] Data for each sample were normalized to the pre-glucose injection baseline for that sample and expressed as % change from that baseline. The area under of the curve of extracellular acidification change from baseline for each sample was the calculated and used for subsequent analysis.
# C2C12 myotubes [2] = assay: Mitochondrial biogenesis (mitochondrial mass, NAO probe); format: cell-based; details: FIG. 13
# Method: Cell Culture: C2C12 and 3T3-L1 preadipocytes (American Type Culture Collection) were plated at a density of 8000 cells/cm^2 (10 cm^2 dish) and grown in Dulbecco's modified eagle's medium (DMEM) containing 10% fetal bovine serum (FBS), and antibiotics (growth medium) at 37° C. in 5% CO2. Confluent 3T3-L1 preadipocytes were induced to differentiate with a standard differentiation medium consisting of DMEM medium supplemented with 10% FBS, 250 nM dexamethasone, 0.5 mM 3-Isobutyl-1-methylxanthine (IBMX) and 1% penicillin-streptomycin. Preadipocytes were maintained in this differentiation medium for 3 days and subsequently cultured in growth medium. Cultures were re-fed every 2-3 days to allow >90% cells to reach fully differentiation before conducting chemical treatment. For differentiation of C2C12 cells, cells were grown to 100% confluence, transferred to differentiation medium (DMEM with 2% horse serum and 1% penicillin-streptomycin), and fed with fresh differentiation medium every day until myotubes were fully formed (3 days). Mitochondrial biogenesis: Mitochondrial biogenesis was assessed as change in mitochondrial mass, as previously described (2). The mitochondrial probe NAO (Invitrogen, Carlsbad, Calif.) was used to analyze mitochondrial mass by fluorescence (excitation 485 nm and emission 520 nm) and quantitative data was obtained with a fluorescence microplate reader (Synergy HT, BioTek Instruments, Winooski, Vt.). The intensity of fluorescence was expressed as arbitrary units per μg protein and normalized to control values within each assay.
# Phospho-AMPKα (Thr172) = Phospho-AMPKα (Thr172) Western blot in myotubes; format: cell-based; details: C2C12 myotubes, FIG. 11
# Method: Cell Culture: C2C12 and 3T3-L1 preadipocytes (American Type Culture Collection) were plated at a density of 8000 cells/cm^2 (10 cm^2 dish) and grown in Dulbecco's modified eagle's medium (DMEM) containing 10% fetal bovine serum (FBS), and antibiotics (growth medium) at 37° C. in 5% CO2. Confluent 3T3-L1 preadipocytes were induced to differentiate with a standard differentiation medium consisting of DMEM medium supplemented with 10% FBS, 250 nM dexamethasone, 0.5 mM 3-Isobutyl-1-methylxanthine (IBMX) and 1% penicillin-streptomycin. Preadipocytes were maintained in this differentiation medium for 3 days and subsequently cultured in growth medium. Cultures were re-fed every 2-3 days to allow >90% cells to reach fully differentiation before conducting chemical treatment. For differentiation of C2C12 cells, cells were grown to 100% confluence, transferred to differentiation medium (DMEM with 2% horse serum and 1% penicillin-streptomycin), and fed with fresh differentiation medium every day until myotubes were fully formed (3 days).
# Western blot: The Phospho-AMPKα (Thr172)- and Sirt1 (mouse specific)-antibody was obtained from Cell Signaling (Danvers, Mass.). C2C12 myotubes were treated as indicated in results and the cellular fractions were prepared using standard methods. Protein was measured by BCA kit (Thermo Scientific). […] Visualization and chemiluminescent detection was conducted using BioRad ChemiDoc instrumentation and software (Bio-Rad Laboratories, Hercules, Calif.) and band intensity was assessed using Image Lab 4.0 (Bio-Rad Laboratories, Hercules, Calif.), with correction for background and loading controls. P-AMPK was detected at 61-66 kDA and Sirt1 was detected at 104-115 kDA.
smiles,measurement,setting,value
"CC(C)C[C@H](N)C(=O)O [Leucine, leucine]",increase in fatty acid oxidation,C2C12 myotubes [1],73%
same,"Sirt1 protein levels, increase",Sirt1,unaffected
same,increase in glucose utilization,3T3-L1 adipocytes,no independent significant effect
same,increase in mitochondrial biogenesis (mitochondrial biomass),C2C12 myotubes [2],about 15%
same,"AMPK activation (Phosphorylated AMPK Thr172), increase",Phospho-AMPKα (Thr172),"Neither treatment with leucine, valine, nor B6 alone exerted any significant effect"
